Data as given in ChEMBL document CHEMBL5724914, “Linking interpersonal differences in gut microbiota composition and drug biotransformation activity” (2024).

Tests used:
[1] = (§1) The drug is tested on Z-020 corresponding to rabbit gut metagenome with ENA study accession number: PRJEB37062 and ENA sample accession number: ERS12561819 for biotransformation under anaerobic condition. The drug concentrations were measured over 9 timepoints collected between 0 and 24 hours of incubation by liquid-chromatography-coupled mass spectrometry (LC–MS); details: 2 µM
[2] = as §1, with “Z-016” for “Z-020”, “mouse” for “rabbit”, “ERS12561815” for “ERS12561819”; details: 2 µM
[3] = as §1, with “WLS-038” for “Z-020”, “human” for “rabbit”, “ERS12561745” for “ERS12561819”; details: 2 µM
[4] = human gut metagenome, 24 h, 2 µM
[5] = human gut metagenome, 24 h, 2 µM; remark: listed apart in the source
[6] = as §1, with “Z-008” for “Z-020”, “to” for “to rabbit gut”, “ERS12561808” for “ERS12561819”; details: 2 µM
[7] = as §1, with “Z-023” for “Z-020”, “to” for “to rabbit gut”, “ERS12561822” for “ERS12561819”; details: 2 µM
[8] = as §1, with “Z-010” for “Z-020”, “to” for “to rabbit gut”, “ERS12561810” for “ERS12561819”; details: 2 µM
[9] = human gut metagenome, 24 h, 2 µM; remark: listed apart in the source
[10] = human gut metagenome, 24 h, 2 µM; remark: listed apart in the source
[11] = as §1, with “WLS-350” for “Z-020”, “human” for “rabbit”, “ERS12561789” for “ERS12561819”; details: 2 µM
[12] = human gut metagenome, 24 h, 2 µM; remark: listed apart in the source
[13] = as §1, with “Z-006” for “Z-020”, “mouse” for “rabbit”, “ERS12561806” for “ERS12561819”; details: 2 µM
[14] = as §1, with “Z-027” for “Z-020”, “to” for “to rabbit gut”, “ERS12561826” for “ERS12561819”; details: 2 µM
[15] = as §1, with “WLS-007” for “Z-020”, “human” for “rabbit”, “ERS12561742” for “ERS12561819”; details: 2 µM
[16] = human gut metagenome, 24 h, 2 µM; remark: listed apart in the source
[17] = as §1, with “Z-018” for “Z-020”, “pig” for “rabbit”, “ERS12561817” for “ERS12561819”; details: 2 µM
[18] = human gut metagenome, 24 h, 2 µM; remark: listed apart in the source
[19] = as §1, with “Z-021” for “Z-020”, “to” for “to rabbit gut”, “ERS12561820” for “ERS12561819”; details: 2 µM
[20] = as §1, with “WLS-170” for “Z-020”, “human” for “rabbit”, “ERS12561762” for “ERS12561819”; details: 2 µM
Note: call rule not given here.

Compound | Bacterial Biotransformation [1] | Bacterial Biotransformation [2] | Bacterial Biotransformation [3] | Bacterial Biotransformation [4] | Bacterial Biotransformation [5] | Bacterial Biotransformation [6] | Bacterial Biotransformation [7] | Bacterial Biotransformation [8] | Bacterial Biotransformation [9] | Bacterial Biotransformation [10] | Bacterial Biotransformation [11] | Bacterial Biotransformation [12] | Bacterial Biotransformation [13] | Bacterial Biotransformation [14] | Bacterial Biotransformation [15] | Bacterial Biotransformation [16] | Bacterial Biotransformation [17] | Bacterial Biotransformation [18] | Bacterial Biotransformation [19] | Bacterial Biotransformation [20]
CC(C)c1nc(CN(C)C(=O)N[C@H](C(=O)N[C@@H](Cc2ccccc2)C[C@H](O)[C@H](Cc2ccccc2)NC(=O)OCc2cncs2)C(C)C)cs1 [RITONAVIR] | Compound metabolized | Compound metabolized | Compound metabolized | Compound metabolized | Compound metabolized | Compound metabolized | Compound metabolized | Compound metabolized | Compound NOT metabolized | Compound metabolized | Compound NOT metabolized | Compound NOT metabolized | Compound metabolized | Compound metabolized | Compound metabolized | Compound NOT metabolized | Compound metabolized | Compound metabolized | Compound NOT metabolized | Compound metabolized
CCc1nn(CCCN2CCN(c3cccc(Cl)c3)CC2)c(=O)n1CCOc1ccccc1 [NEFAZODONE] | Compound NOT metabolized | Compound NOT metabolized | Compound metabolized | Compound NOT metabolized | Compound metabolized | Compound NOT metabolized | Compound NOT metabolized | Compound NOT metabolized | Compound metabolized | Compound metabolized | Compound NOT metabolized | Compound NOT metabolized | Compound NOT metabolized | Compound NOT metabolized | Compound metabolized | Compound NOT metabolized | Compound NOT metabolized | Compound NOT metabolized | Compound NOT metabolized | Compound metabolized
CC(C)NCC(O)COc1ccc(CCOCC2CC2)cc1 (stereo not given) [BETAXOLOL] | Compound NOT metabolized | Compound NOT metabolized | Compound NOT metabolized | Compound NOT metabolized | Compound NOT metabolized | Compound NOT metabolized | Compound metabolized | Compound NOT metabolized | Compound NOT metabolized | Compound NOT metabolized | Compound NOT metabolized | Compound NOT metabolized | Compound NOT metabolized | Compound NOT metabolized | Compound NOT metabolized | Compound NOT metabolized | Compound NOT metabolized | Compound NOT metabolized | Compound NOT metabolized | Compound metabolized
N#Cc1ccc(C(c2ccc(C#N)cc2)n2cncn2)cc1 [LETROZOLE] | Compound NOT metabolized | Compound NOT metabolized | Compound NOT metabolized | Compound NOT metabolized | Compound NOT metabolized | Compound NOT metabolized | Compound metabolized | Compound NOT metabolized | Compound NOT metabolized | Compound NOT metabolized | Compound NOT metabolized | Compound NOT metabolized | Compound NOT metabolized | Compound NOT metabolized | Compound NOT metabolized | Compound metabolized | Compound NOT metabolized | Compound NOT metabolized | Compound metabolized | Compound NOT metabolized
Nc1c2c(nc3ccccc13)CCCC2 [TACRINE] | Compound NOT metabolized | Compound NOT metabolized | Compound NOT metabolized | Compound NOT metabolized | Compound NOT metabolized | Compound NOT metabolized | Compound NOT metabolized | Compound NOT metabolized | Compound NOT metabolized | Compound metabolized | Compound NOT metabolized | Compound NOT metabolized | Compound NOT metabolized | Compound NOT metabolized | Compound NOT metabolized | Compound NOT metabolized | Compound NOT metabolized | Compound NOT metabolized | Compound NOT metabolized | Compound metabolized
CCC(=O)NCC[C@@H]1CCc2ccc3c(c21)CCO3 [RAMELTEON] | Compound metabolized | Compound metabolized | Compound metabolized | Compound metabolized | Compound metabolized | Compound metabolized | Compound metabolized | Compound metabolized | Compound metabolized | Compound metabolized | Compound metabolized | Compound metabolized | Compound metabolized | Compound NOT metabolized | Compound NOT metabolized | Compound metabolized | Compound metabolized | Compound metabolized | Compound metabolized | Compound metabolized
CC(C)(Oc1ccc(CCNC(=O)c2ccc(Cl)cc2)cc1)C(=O)O [BEZAFIBRATE] | Compound NOT metabolized | Compound metabolized | Compound metabolized | Compound metabolized | Compound metabolized | Compound NOT metabolized | Compound metabolized | Compound metabolized | Compound NOT metabolized | Compound metabolized | Compound metabolized | Compound metabolized | Compound NOT metabolized | Compound NOT metabolized | Compound metabolized | Compound metabolized | Compound NOT metabolized | Compound metabolized | Compound metabolized | Compound metabolized
CCN(CC)CCNC(=O)c1cc(Cl)c(N)cc1OC [METOCLOPRAMIDE] | Compound NOT metabolized | Compound NOT metabolized | Compound NOT metabolized | Compound NOT metabolized | Compound NOT metabolized | Compound NOT metabolized | Compound NOT metabolized | Compound NOT metabolized | Compound NOT metabolized | Compound NOT metabolized | Compound NOT metabolized | Compound NOT metabolized | Compound NOT metabolized | Compound NOT metabolized | Compound NOT metabolized | Compound NOT metabolized | Compound NOT metabolized | Compound NOT metabolized | Compound NOT metabolized | Compound NOT metabolized
